In a melting point compilation (Tetko et al.; mined from patent text by program, amines drawn as free bases though some values may be those of a salt):

Row | SMILES | melting point [°C]
1 | CCOC(=O)CCCn1cc(C(=O)c2ccc(N)c(OCCCCl)c2)c2ccccc21 | 93 to 95
2 | CCOC(=O)C[C@H](NC(=O)/C=C/C(=O)c1ccccc1)C(=O)OCC | 91 to 93
3 | ClC(Cl)(Cl)c1nc2ccccc2o1 | 102
4 | CN(C)C=Nc1cnc(-c2cccc(CO)c2)nc1 | 105 to 106
5 | COC(=O)C(=Cc1c[nH]c2cc(C)ccc12)[N+](=O)[O-] | 167 to 169
6 | Fc1cc(-n2cc(CN=C=S)nn2)cc(F)c1N1CCOCC1 | 135
7 | O=C(Cl)c1c(Cl)c(Cl)c(Cl)c(Cl)c1CCl | 77 to 78
8 | COC(=O)CNc1cccc(C#N)c1 | 91.5 to 92.5
9 | CCSc1c(O[C@H]2CC[C@H](N)CC2)ccc2[nH]ncc12 | 157 to 158
10 | C/C=C/Cn1c(Oc2cc(C)cc(C)c2)c(CC)c(=O)[nH]c1=O | 149 to 150
11 | Cc1nnc(-c2ccc(Cl)c([N+](=O)[O-])c2)[nH]1 | 168
12 | CCCCOCCOc1ccc(-c2ccc3c(c2)C=C(C(=O)O)CCN3CC2CC2)cc1 | 152 to 155
13 | N#CCCNC(=O)c1n[nH]cc1NC(=O)c1ccccn1 | 223 to 224
14 | COc1cccc(C(O)c2cccc(C(F)(F)F)c2)c1 (stereo not drawn) | 51 to 52
15 | O=C(O)C1CSC(c2ccccc2OCC2CCC(CO[N+](=O)[O-])CC2)N1 (stereo not drawn) | 108 to 111
16 | Cc1cccc2c(C#N)csc12 | 82 to 84
17 | Cc1cc(N)c2nccc(Cl)c2c1 | 115 to 116
18 | Cc1nc2[nH]c(=O)ccc2c(C)c1C | 170 to 175
19 | CC(=O)Nc1cc2c(cc1[N+](=O)[O-])OCO2 | 207 to 208
20 | COc1cccc(C(F)(F)F)c1O | 51 to 53
21 | NC(=O)C1=C(C(=O)Nc2cc(OC3CCCC3)c(Cl)cc2F)CCCC1 | 200 to 201
22 | NC(=N[N+](=O)[O-])N1CCN(Cc2ccc(Cl)nc2)C1 | 170 to 174

Row | SMILES | melting point [°C]
23 | N#CC1(c2cccs2)CCC(=O)CC1 | 118 to 119
24 | COC1=C(C(=O)c2ccc(Cl)cc2Cl)C(=O)CCC1 | 81 to 86
25 | COc1ccccc1C(=O)ON1C(=O)CCC1=O | 180 to 182
26 | COC(=O)c1sc2ccccc2c1CBr | 101 to 102
27 | CCC#COc1ccc(S(=O)(=O)NC(CSC)C(=O)NO)cc1 (stereo not drawn) | 128 to 130
28 | CCOC(=O)C(C#N)=Cc1cc([N+](=O)[O-])ccc1Cl | 83 to 85
29 | COc1c(N2CC[C@@H](C(C)(C)N)C2)c(F)cc2c(=O)c(C(=O)O)cn(C3CC3)c12 | 225 to 227
30 | C=C(c1ccsc1C(=O)O)c1cc(C(C)(C)C)cc2c1CCC2(C)C | 146 to 148
31 | Nc1cc(-n2cc(C(=O)O)c(=O)c3cc(F)c(F)c(Cl)c32)c(F)cc1F | 225 to 226
32 | CCCCCCCc1ccc(CCCCCCC)c(C#N)c1C#N | 4.6
33 | COc1cc(C(=O)c2ccccc2Cl)cc([N+](=O)[O-])c1O | 129 to 131
34 | COC(=O)c1nsnc1Br | 57 to 58
35 | COc1ccc(CN(OC)C(=O)C2=C(O)C(=O)N(C)C2)cc1 | 135 to 137
36 | C1=CC2OC1c1cc3c(cc12)OCO3 | 111 to 112
37 | C[C@H]([C@](O)(Cn1cncn1)c1ccc(F)cc1F)S(=O)(=O)N1CCOCC1 | 157 to 158
38 | CCCCCCOC(=O)C1=C(C)NN=C(CC)C1c1cccc([N+](=O)[O-])c1 (stereo not drawn) | 92
39 | COCCOc1ccc(/C=C/C(=O)NS(=O)(=O)c2ccc(F)cc2)c(Oc2ncc(C(F)(F)F)cc2Cl)c1 | 183 to 184
40 | CC(C)CNS(=O)(=O)c1ccc(N)c(C(=O)N2CCN(C)CC2)c1 | 162 to 163
41 | O=S(=O)(c1ccc(Nc2nccc(Nc3ccc(F)cc3)n2)cc1)N(CCN1CCCC1)C1CCC2(CC1)OCCO2 | 155
42 | O=c1n(-c2cccc(Cl)c2)c(=O)n(SC(Cl)(Cl)Cl)n1SC(Cl)(Cl)Cl | 153
43 | O=CNNc1ccccc1 | 138 to 143
44 | CCOC(=O)C=CC=Cc1ccc([N+](=O)[O-])cc1 | 150 to 152

The next lines start with the values.

Row | melting point [°C] | SMILES
45 | 136 to 139 | COc1cccc2c1nc(C1CC1)n2Cc1c(F)cccc1F
46 | 194 to 198 | C[C@@H](NC(=O)c1c[nH]c2ncc(-c3nn(C)c4cccnc34)nc12)C(=O)N1CC(C#N)C1
47 | 204 to 205 | FC(COC1CCC(Nc2ncnc3[nH]ncc23)CC1F)c1ccccc1 (stereo not drawn)
48 | 91 to 93 | COC(=O)c1ccc(SCc2cccc(C(F)(F)F)c2)c(C)n1
49 | > 250 | CC1CC(=O)NN=C1c1ccc(-c2ccc(=O)[nH]n2)cc1 (stereo not drawn)
50 | 233 to 235 | CCn1ncc2c(NC)c3c(nc21)C(=NC)c1ccccc1CC3
51 | 51 to 55 | Cc1noc(NS(=O)(=O)c2ccsc2C(=O)N(C)c2ccccc2)c1Br
52 | 195 to 197 | CCS(=O)(=O)c1ccc(-c2nc(-c3nc4cc(OC)cc(OC)c4c(=O)[nH]3)ccc2OCCNC(C)C)cc1
53 | 134 | CC(C)(C)OC(=O)N1CCn2c(C(=O)N[C@@H](Cc3ccccc3)[C@H](O)CNC3(c4cccc(C(F)(F)F)c4)CC3)cc(C(=O)O)c2C1
54 | 128 to 131 | c1ccc(P(CC[Si](c2ccccc2)(c2ccccc2)c2ccccc2)c2ccccc2)cc1
55 | 61 to 62 | c1ccc(Cc2nc(COc3ccc(CCCn4ccnc4)cc3)co2)cc1
56 | 170 to 171 | Cc1ccc(-c2ccc3c(c2)C=C(C(=O)Nc2ccc(CN(C)C4CCOCC4)cc2)CC(C)O3)cc1 (stereo not drawn)
57 | 80 to 82 | CCn1c(SC)cc2ccccc2c1=O
58 | 123 to 124 | Cc1cc(C(=O)c2cccc(Cc3ccccc3)c2)c(O)c2ncccc12
59 | 91 to 93 | COc1ccc(N(CCCC(=O)O)C(=O)CCN(C(=O)c2ccc(Cl)cc2)c2ccc(OC)cc2)cc1
60 | 141 to 142 | Cc1cc(Cl)c(OCCO[Si](C)(C)C(C)(C)C)cc1Nc1nnc2n1[C@H](c1ccc(F)cc1)COC2
61 | 235 to 237 | Cn1ccc2cc(N3Cc4ccc(Br)cc4C3=O)ccc21
62 | 174 to 176 | O=C(NO)c1ccc(CNC(=O)c2[nH]c(-c3ccccc3)cc2-c2ccc(Br)cc2)cc1
63 | 166 to 167 | CON=C(C(=O)OC)c1ccccc1-c1nnc(-c2cccc(C)c2)o1
64 | 156 to 158 | CC(C)(C)NC(=O)N1CCn2cc(-c3ccccc3)c(C(N)=O)c2C1
65 | 204 to 205 | Nc1nc(SCCC(=O)c2ccccc2)c2[nH]cnc2n1
66 | > 250 | Cn1nc(-c2c(NCc3ccccc3)nc(N)nc2-c2ccccc2)ccc1=O
67 | 222 to 226 | Nc1ncc(CN2CCN(c3cccc(Cl)c3)CC2)c(N)n1
68 | 172 to 174 | NC(=O)c1cc(CN2C(=O)C3(COc4cc5c(cc43)OCO5)c3ccccc32)oc1C(F)(F)F (stereo not drawn)
69 | 270 to 272 | CC1(C)CCC(C)(C)c2cc(-c3cc(-c4ccc(C(=O)O)cc4)ccc3OCCN3CCOCC3)ccc21
70 | 181 to 183 | Brc1ccc2c(c1)C1(c3ccccc3-c3ccccc31)c1ccccc1-2
71 | 104 to 106 | Cc1cccc(C(=O)Nc2ccc3c(c2)CCC(NCc2ccccn2)CC3)c1-c1ccc(C(F)(F)F)cc1 (stereo not drawn)
72 | 93 to 94 | CCOC(=O)c1c(C(C)(C)C)oc(-c2ccccc2)c1-c1ccc(F)cc1
73 | 78.2 to 79 | CCOc1ccc(-c2nc(CCC(O)c3ccccc3OC)cs2)cc1OCC (stereo not drawn)
